Data set [1] deals with Maltase. As to the kind of experiment: In vitro inhibition of intestinal maltase. The class given is biochemical. As to conditions: Table 1.
Data set [2] has as its target Hexosaminidase. As to the kind of experiment: In vitro inhibition of lysosomal hexosaminidase (4-MU substrate, purified enzyme from spleen). The class given is biochemical. To be noted: Table 3, read-out: Apparent in vitro IC50 value, Hexosaminidase.
Data set [3] concerns the target T1, A-Galactosidase (Homo sapiens, UniProt P06280).
T1 construct: measured with appropriate 4-MU substrates using purified enzymes from spleen; from tissue; host or cells: spleen
T1 sequence (P06280 32-429): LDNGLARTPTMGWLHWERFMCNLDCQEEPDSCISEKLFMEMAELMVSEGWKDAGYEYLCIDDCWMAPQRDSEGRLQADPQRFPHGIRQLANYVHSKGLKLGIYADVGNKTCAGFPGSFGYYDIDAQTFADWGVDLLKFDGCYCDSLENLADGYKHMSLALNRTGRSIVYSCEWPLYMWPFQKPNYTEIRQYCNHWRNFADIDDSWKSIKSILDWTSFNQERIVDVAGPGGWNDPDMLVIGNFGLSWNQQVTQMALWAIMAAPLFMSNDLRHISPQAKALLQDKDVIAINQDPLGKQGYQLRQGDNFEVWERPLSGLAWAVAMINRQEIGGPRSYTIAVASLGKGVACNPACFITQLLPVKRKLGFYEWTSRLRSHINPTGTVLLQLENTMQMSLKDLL
The experiment in a line: In vitro inhibition of lysosomal A-galactosidase (4-MU substrate, purified enzyme from spleen). Format: biochemical. As to conditions: Table 3, read-out: Apparent in vitro IC50 value, A-Galactosidase.

For data set [4], the target named is T2, b-Galactosidase (Homo sapiens, UniProt P16278).
T2 construct: measured with appropriate 4-MU substrates using purified enzymes from spleen; from tissue; host or cells: spleen
T2 sequence (P16278 29-677): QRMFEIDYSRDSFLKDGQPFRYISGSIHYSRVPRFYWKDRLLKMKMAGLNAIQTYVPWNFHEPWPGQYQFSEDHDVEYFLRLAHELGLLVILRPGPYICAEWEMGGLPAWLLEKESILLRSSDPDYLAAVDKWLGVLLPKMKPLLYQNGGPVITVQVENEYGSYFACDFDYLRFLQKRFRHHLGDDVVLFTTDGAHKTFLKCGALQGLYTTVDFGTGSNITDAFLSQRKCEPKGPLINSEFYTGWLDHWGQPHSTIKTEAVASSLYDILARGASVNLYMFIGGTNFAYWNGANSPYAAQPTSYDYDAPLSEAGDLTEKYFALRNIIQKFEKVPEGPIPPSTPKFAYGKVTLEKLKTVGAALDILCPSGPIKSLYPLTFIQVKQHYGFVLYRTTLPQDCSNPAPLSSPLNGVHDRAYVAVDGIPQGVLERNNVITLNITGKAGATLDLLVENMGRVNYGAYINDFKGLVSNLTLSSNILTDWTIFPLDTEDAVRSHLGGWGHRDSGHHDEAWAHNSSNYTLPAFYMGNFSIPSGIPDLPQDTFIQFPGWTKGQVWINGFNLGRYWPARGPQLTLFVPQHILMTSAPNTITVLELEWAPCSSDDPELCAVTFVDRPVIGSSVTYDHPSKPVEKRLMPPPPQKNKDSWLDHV
As to the kind of experiment: In vitro inhibition of lysosomal b-galactosidase (4-MU substrate, purified enzyme from spleen). As to conditions: Table 3, read-out: Apparent in vitro IC50 value, A b-Galactosidase. Format: biochemical.

For data set [5], the system named is MEB4 culture. As to the kind of experiment: Pigmentation of MEB4 melanoma culture. The class given is cell-based, murine. To be noted: inhibition of glycosphingolipid synthesis in MEB4 culture. The source says:
Two melanoma cultures, one dark pigmented (An) and the other very lightly pigmented (M14) show a clearly higher content of glucosylceramide (GlcCer) in the darkly pigmented culture both in the total cell extract and in a melanosomal fraction.

In data set [6] the test system is human melanocytes. As to the kind of experiment: Pigmentation / melanin production in melanocytes. As to conditions: melanocytes of lighter and darker skin type, within a single culture passage. Format: cell-based. An excerpt: Iminosugars were designed that harbour optimal features for use in skin. Ceramide and glucosylceramide are important structural components of the stratum corneum and regulate water permeability of the skin. It is known that glucosylceramides together with other polar lipids are secreted into the extracellular space of the stratum corneum by lamellar bodies and are subsequently processed to ceramides. […] Iminosugars should therefore not interfere with the crucial generation of ceramide from glucosylceramide catalysed by lysosomal glucocerebrosidase.
The pharmaceutical application of the deoxynojirimycin analogues according to the invention and will be in post-inflammatory hyperpigmentation and skin inflammatory conditions. There is strong evidence that when administered systemically these deoxynojirimycin analogues have strong anti-inflammatory activity in vivo.

Data set [7] can be described thus: Bioavailability. Format: in vivo. As to conditions: orally administered.
The nature of data set [8]: Cellular toxicity. Format: cell-based. As to conditions: at doses envisioned during therapy.
The target in data set [9] is T3, lysosomal alfa-glucosidase (Homo sapiens, UniProt P10253).
T3 construct: measured with appropriate 4-MU substrates using purified enzymes from spleen; from tissue; host or cells: spleen
The experiment in a line: In vitro inhibition of lysosomal alfa-glucosidase (4-MU substrate, purified enzyme from spleen). The class given is biochemical. To be noted: Table 3, read-out: Apparent in vitro IC50 value, a-Glucosidase.

Data set [10] concerns glycosphingolipid synthesis. To be noted: 100 mg TID, Gaucher patients; cited from earlier work.
The nature of data set [11]: Metabolism. To be noted: in vivo.

SMILES strings stand for the structures.

Take `OC[C@@H]1[C@H](O)[C@H](O)[C@H](O)CN1CCCCCOCC12CC3CC(CC(C3)C1)C2` [N-(adamantane-1-yl-methoxypentyl)-L-ido-deoxynojirimycin]: the IC50 in data set [1], in [2], in data set [3] and in data set [4] was greater than 100 µM throughout. Moreover, the “Pigmentation of MEB4 culture” value in [5] is “loss of pigmentation”. Further, the figures for the “Pigmentation / melanin production in melanocytes” value in data set [6] and in data set [6] (listed as ido-N-(5-adamantane-1-yl-methoxy-pentyl)deoxynojirimycin) were “reduce melanin production” and “significant decrease in pigmentation”, respectively. The Bioavailability entry in data set [7] was “well bioavailable”. Further, in [8], the Cellular toxicity result was “no cellular toxicity”.

For `CCCCN1C[C@H](O)[C@@H](O)[C@H](O)[C@H]1CO` [N-butyl-deoxynojirimycin, reference compound], the figures for the IC50 in data set [9], in [2] and in [4] were 0.8 µM, greater than 100 µM and greater than 100 µM, respectively. The “Inhibition of glycosphingolipid synthesis” value in [10] is 20-30%.

In data set [1], `OC[C@@H]1[C@@H](O)[C@H](O)[C@@H](O)CN1CCCCCOCC12CC3CC(CC(C3)C1)C2` [N-(5-adamantane-1-yl-methoxy-pentyl)deoxynojirimycin, reference compound] yielded an IC50 greater than 25 µM. The Bioavailability result in [7] is listed as “highly bioavailable”. Besides, in [8], the Cellular toxicity result is recorded as “no intrinsic cellular toxicity”. For the same compound, in data set [11], the Metabolism result is “metabolically inert”.

By IC50 is commonly meant the concentration that gives 50% inhibition.

The values are drawn from patent US7528153B2, “Deoxynojirimycin analogues and their uses as glucosylceramidase inhibitors” (Genzyme Corporation, priority 2003, dated 2009).
